For one assay, the system named is CT26 tumors.
Assay: not given
Conditions: repeated administration; cited from earlier work.
T1 sequence (P14902 whole entry): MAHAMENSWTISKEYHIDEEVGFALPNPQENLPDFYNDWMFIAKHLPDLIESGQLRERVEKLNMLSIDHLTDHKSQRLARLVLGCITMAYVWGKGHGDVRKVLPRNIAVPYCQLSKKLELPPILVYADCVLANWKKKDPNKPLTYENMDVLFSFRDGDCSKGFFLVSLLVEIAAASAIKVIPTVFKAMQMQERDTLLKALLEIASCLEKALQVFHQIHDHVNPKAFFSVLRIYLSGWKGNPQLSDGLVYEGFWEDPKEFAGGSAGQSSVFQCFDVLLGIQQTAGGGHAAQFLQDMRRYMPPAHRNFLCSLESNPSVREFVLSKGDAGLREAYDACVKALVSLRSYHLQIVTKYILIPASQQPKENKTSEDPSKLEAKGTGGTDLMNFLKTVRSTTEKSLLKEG
As for `NS(=O)(=O)NCCNc1nonc1C(=NO)Nc1ccc(F)c(Br)c1` [INCB-024360], the “expansion of CT26 tumors” value is reported as “hinders the expansion of CT26 tumors”.

A further assay addresses T1, indoleamine 2,3-dioxygenase (IDO) activity in Hela cells (Homo sapiens, UniProt P14902).
T1 construct: a certain concentration of IFN-γ can induce Hela cells to express IDO; host or cells: HeLa cells induced with IFN-γ
Kind of assay: IDO Intracellular Activity Inhibition Test (Ehrlich method, IFN-γ induced Hela cells). It counts as cell-based. Conditions: IDO activity in Hela cells induced by IFN-γ, 24 hours incubation, OD490. The method, then:
IDO Intracellular Activity Inhibition Test
The effect of the compound of the present invention on the indoleamine 2,3-dioxygenase (IDO) activity in Hela cells induced by IFN-γ was evaluated by the Ehrlich method.
The principle underlined for this experiment is summarized as follows: The expression of IDO in Hela cells is low in the absence of any induction. However, a certain concentration of IFN-γ can induce Hela cells to express IDO, so that it can catalyze the production of N-formylkynurenine from tryptophan. The produced N-formylkynurenine can be hydrolyzed by trichloroacetic acid to kynurenine, then a color reaction of the achieved kynurenine with Ehrlich reagent can be used to detect the activity of IDO. The absorbance at 490 nm (OD490) is in proportion to the activity of IDO.
The compound was dissolved and diluted to 5 mM with DMSO (Sigma, catalog number: D5879), then serially diluted in 3 folds each time with DMSO to a minimum concentration of 2.29 μM. The diluent at each concentration point was further diluted in 50 folds with DMEM medium (ThermoFisher, catalog number: 11995073) free of FBS. If the IC50 value of the compound was very low, the initial concentration of the compound could be lowered. Hela cells (ATCC, catalog number CCL-2) were cultured in DMEM complete medium containing 10% FBS (GBICO, catalog number 10099-141) and 100 U/mL penicillin streptomycin mixture (ThermoFisher, catalog number 15140122). When the cell coverage in the culture vessel reached 80-90%, 0.25% pancreatin (containing EDTA) (ThermoFisher, catalog number 25200056) was used to digest and blow off the cells, and the cells were grown in a 96-well plate (Corning, catalog number 3599), 30,000 cells per well (80 μL DMEM medium). The 96-well plate was then incubated in an incubator (37° C., 5% CO2) overnight (18-20 hours).
10 μL of DMEM diluted compound and 10 μL of 500 ng/mL INF-γ were added to each well, and mixed gently. The 96-well plate was placed into an incubator (37° C., 5% CO2) for further incubation. The mixture was taken out and centrifuged at 2000×g at room temperature for 5 minutes after 24 hours of incubation, the supernatant was transferred to the reaction plate (Sigma, catalog number CLS3695), one-twentieth of trichloroacetic acid (Sigma, product number T9159) was added, and incubated at 60° C. after mixed well. 30 minutes later, the reaction plate was taken out and centrifuged at 2000×g at room temperature for 5 minutes, the supernatant was transferred to a clean reaction plate, equal volume of Ehrlich reagent was added, and the mixture was incubated at room temperature after mixed well. The OD490 of each well was determined 5 minutes later.
In the experiment, OD490 of the DMEM medium control group without IFN-γ was used as OD490100% inhbition; OD490 of the group in which the final concentration of IFN-γ in DMSO was 0.2% was used ads OD4900% inhbition.
The percent inhibition of IDO activity in Hela cells by a compound can be calculated by the following formula: […]
IC50 of a compound was calculated by the following formula using 8 concentration points and XLfit (ID Business Solutions Ltd., UK) software
Y=Bottom+(Top−Bottom)/(1+10^((log IC50−X)*slope factor))
where Y is inhibition percentage. Bottom is the bottom plateau of the S-type curve, Top is the top plateau of the S-type curve, X is the logarithm of the concentration of the tested compound, and slope factor is the slope coefficient of the curve.
Regarding `O=c1c2ccc(Cl)cc2[nH]n1C[C@H]1CC[C@H](c2ccnc3ccc(F)cc32)CC1` [Compound 1, 6-chloro-2-(((1r,4r)-4-(6-fluoroquinolin-4-yl)cyclohexyl)methyl)-1,2-dihydro-3H-indazol-3-one], the IC50 (commonly the concentration at which inhibition is half-maximal) was 50 to 200 nM.
The molecule `Cc1cc([C@H]2CC[C@@H]([C@@H](C)n3[nH]c4cc(Cl)ccc4c3=O)CC2)ccn1` [Compound 5, 6-chloro-2-((R)-1-((1s,4S)-4-(2-methylpyridin-4-yl)cyclohexyl)ethyl)-1,2-dihydro-3H-indazol-3-one] registered an IC50 of under 50 nM.
The molecule `C[C@H]([C@H]1CC[C@@H](c2ccnc3ccc(F)cc32)CC1)n1[nH]c2cc(Cl)c(Cl)cc2c1=O` [Compound 10, 5,6-dichloro-2-((R)-1-((1s,4S)-4-(6-fluoroquinolin-4-yl)cyclohexyl)ethyl)-1,2-dihydro-3H-indazol-3-one] showed an IC50 of under 50 nM.
On the same count and under the same terms, the value for `C[C@H]([C@H]1CC[C@@H](c2ccnc3ccc(F)cc32)CC1)n1[nH]c2cc(Cl)cnc2c1=O` [Compound 8, 6-chloro-2-((R)-1-((1s,4S)-4-(6-fluoroquinolin-4-yl)cyclohexyl)ethyl)-1,2-dihydro-3H-pyrazolo[4,3-b]pyridin-3-one] was under 50 nM; that for `C[C@H]([C@H]1CC[C@@H](c2ccnc3ccc(F)cc32)CC1)n1[nH]c2ncc(Cl)cc2c1=O` [Compound 9, 5-chloro-2-((R)-1-((1s,4S)-4-(6-fluoroquinolin-4-yl)cyclohexyl)ethyl)-1,2-dihydro-3H-pyrazolo[3,4-b]pyridin-3-one] was under 50 nM.
The same measure, in the same setting: for `C[C@H]([C@H]1CC[C@@H](c2ccnc3ccc(F)cc32)CC1)n1[nH]c2ccc(Br)cc2c1=O` [Compound 11, 5-bromo-2-((R)-1-((1s,4S)-4-(6-fluoroquinolin-4-yl)cyclohexyl)ethyl)-1,2-dihydro-3H-indazol-3-one] the value was under 50 nM; for `C[C@H]([C@H]1CC[C@@H](c2ccnc3ccc(F)cc32)CC1)n1[nH]c2ccc(Cl)cc2c1=O` [Compound 7, 5-chloro-2-((R)-1-((1s,4S)-4-(6-fluoroquinolin-4-yl)cyclohexyl)ethyl)-1,2-dihydro-3H-indazol-3-one], under 50 nM.
Same read-out and setting: for `C[C@H]([C@H]1CC[C@@H](c2ccnc3ccc(F)cc32)CC1)n1[nH]c2cc(Cl)ccc2c1=O` [Compound 6, 6-chloro-2-((R)-1-((1s,4S)-4-(6-fluoroquinolin-4-yl)cyclohexyl)ethyl)-1,2-dihydro-3H-indazol-3-one] the value was under 50 nM.
As to `CC([C@H]1CC[C@@H](c2ccnc3ccc(F)cc32)CC1)n1[nH]c2cc(Cl)ccc2c1=O` (stereo partly shown) [Compound 4, 6-chloro-2-(1-((1s,4s)-4-(6-fluoroquinolin-4-yl)cyclohexyl)ethyl)-1,2-dihydro-3H-indazol-3-one], the IC50 was under 50 nM.
As for `O=c1c2ccc(Cl)cc2[nH]n1C[C@H]1CC[C@@H](c2ccnc3ccc(F)cc32)CC1` [Compound 2, 6-chloro-2-(((1s,4s)-4-(6-fluoroquinolin-4-yl)cyclohexyl)methyl)-1,2-dihydro-3H-indazol-3-one], the IC50 was under 50 nM.
Molecule `CC([C@H]1CC[C@H](c2ccnc3ccc(F)cc32)CC1)n1[nH]c2cc(Cl)ccc2c1=O` (stereo partly shown) [Compound 3, 6-chloro-2-(1-((1r,4r)-4-(6-fluoroquinolin-4-yl)cyclohexyl)ethyl)-1,2-dihydro-3H-indazol-3-one] displayed an IC50 of 50 to 200 nM.

A further assay deals with T2, plasma IDO activity (Mus musculus, UniProt P28776).
T2 construct: host or cells: mice, in vivo
T2 sequence (P28776 whole entry): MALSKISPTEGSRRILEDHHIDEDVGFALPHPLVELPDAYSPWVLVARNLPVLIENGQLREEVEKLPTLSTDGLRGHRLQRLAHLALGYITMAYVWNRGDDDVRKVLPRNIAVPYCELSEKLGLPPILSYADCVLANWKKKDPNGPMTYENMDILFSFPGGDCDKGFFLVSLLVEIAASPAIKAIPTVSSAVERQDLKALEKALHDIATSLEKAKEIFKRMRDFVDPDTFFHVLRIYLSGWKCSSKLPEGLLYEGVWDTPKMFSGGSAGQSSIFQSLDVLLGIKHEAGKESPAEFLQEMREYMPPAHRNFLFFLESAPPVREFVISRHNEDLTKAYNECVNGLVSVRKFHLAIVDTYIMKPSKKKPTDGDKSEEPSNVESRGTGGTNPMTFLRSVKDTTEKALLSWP
Assay: not given
The conditions noted are these: single administration, blank mice; cited from earlier work.
`NS(=O)(=O)NCCNc1nonc1C(=NO)Nc1ccc(F)c(Br)c1` [INCB-024360]: the “inhibition of plasma IDO activity” value is listed as “effectively inhibit the plasma IDO activity of blank mice to be at the level of IDO-deficient mice”.
